Series [1] can be described thus: Inhibition of calcium ionophore-stimulated LTB4 production in human PMN cells. Format: functional, cell-based.
The target of series [2] is T1, Arachidonate 5-lipoxygenase-activating protein (Homo sapiens, UniProt P20292).
T1 sequence (P20292 whole entry): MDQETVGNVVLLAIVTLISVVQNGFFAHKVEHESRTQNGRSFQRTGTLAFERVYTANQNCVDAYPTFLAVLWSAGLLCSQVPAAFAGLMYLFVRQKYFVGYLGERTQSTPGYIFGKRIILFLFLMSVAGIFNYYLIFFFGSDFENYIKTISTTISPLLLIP
In words: Displacement of [125I]L-691831 from FLAP.

The next series concerns Blood. The series is described as follows: Inhibition of calcium ionophore-stimulated LTB4 production in human whole blood. In kind it is functional, tissue-based.
For series [3], the target named is T2, Polyunsaturated fatty acid 5-lipoxygenase (Homo sapiens, UniProt P09917).
T2 sequence (P09917 whole entry): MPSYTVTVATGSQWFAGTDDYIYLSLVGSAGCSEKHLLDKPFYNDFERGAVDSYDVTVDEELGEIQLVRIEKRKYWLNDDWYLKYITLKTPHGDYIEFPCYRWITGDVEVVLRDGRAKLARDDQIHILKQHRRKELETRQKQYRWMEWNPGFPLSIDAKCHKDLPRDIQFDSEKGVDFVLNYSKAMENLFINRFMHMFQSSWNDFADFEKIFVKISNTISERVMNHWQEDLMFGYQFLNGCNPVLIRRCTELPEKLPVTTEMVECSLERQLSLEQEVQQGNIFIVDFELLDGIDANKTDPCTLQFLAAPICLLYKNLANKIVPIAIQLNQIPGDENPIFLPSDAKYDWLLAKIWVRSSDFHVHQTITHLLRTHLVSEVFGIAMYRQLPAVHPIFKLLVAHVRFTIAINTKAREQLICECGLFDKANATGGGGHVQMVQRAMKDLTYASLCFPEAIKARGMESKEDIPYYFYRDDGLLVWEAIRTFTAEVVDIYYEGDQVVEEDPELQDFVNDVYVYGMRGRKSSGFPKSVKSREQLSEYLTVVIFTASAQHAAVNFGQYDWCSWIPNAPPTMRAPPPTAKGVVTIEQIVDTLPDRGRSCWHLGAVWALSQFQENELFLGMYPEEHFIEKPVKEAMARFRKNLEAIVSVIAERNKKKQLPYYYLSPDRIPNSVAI
The series is described as follows: Inhibition of 5LOX.

A further series deals with Canis familiaris. The series is described as follows: Inhibition of ragweed-induced urinary LTE4 production in dog at 2.5 ug/kg/min, iv. In kind it is functional. The settings on record: Canis lupus familiaris, Urine.
A short description of series [4]: Cmax in rat at 20 mg/kg, po after 6 hrs. In kind it is ADME, organism-based. The arrangement: dose 20 mg/kg, route oral. Particulars: in vivo.
Series [5] can be described thus: Oral bioavailability in rat at 20 mg/kg. In kind it is ADME, organism-based. Particulars: in vivo.

Some results are limits rather than exact numbers.

The term IC50 denotes the concentration at which inhibition is half-maximal. In general, inhibition in vivo refers to the share of the control response that was lost under treatment. Low values mean little suppression, high ones strong suppression. The Cmax is the highest concentration seen after dosing. The term bioavailability denotes dose-corrected exposure relative to a reference, in per cent. Low values mean little systemic uptake, high ones much systemic uptake.

For `Oc1cc(OCc2ccc3ccccc3n2)ccc1C1(c2ccccc2)CC2CCC1C2` (centres undefined), the IC50 in series [1] (Homo sapiens, PMN) was greater than 2370 nM; in series [2], 980 nM.
For the molecule `CS(=O)(=O)CCOc1ccc(OCc2ccc3ccccc3n2)cc1C1(c2ccccc2)CC2CCC1C2` (centres undefined), the half-inhibitory concentration (IC50) in the series with Blood (Homo sapiens, Blood) was 114 nM; in series [1] (Homo sapiens, PMN) it was 4.2 nM; in series [2], 5.5 nM.
On to `COC(=O)COc1ccc(C2(c3ccc(OCc4ccc5ccccc5n4)cc3)CC3CCC2C3)cc1` (centres undefined), for which the IC50 in series [1] (Homo sapiens, PMN) came to 169 nM; in series [2], 182 nM.
For the molecule `Oc1ccc(O)c(C2(c3ccccc3)CC3CCC2C3)c1` (centres undefined), the 50% inhibitory concentration (IC50) in series [1] (Homo sapiens, PMN) came to 418 nM; in series [2] it was 2070 nM.
In the case of `c1ccc(C2(c3cc(OCc4ccc5ccccc5n4)ccc3OCc3ccc4ccccc4n3)CCCC2)cc1`, the IC50 with Blood (Homo sapiens, Blood) was found to be 1080 nM; in series [1] (Homo sapiens, PMN) it was 10.2 nM; in series [2], 4.5 nM.
`COC(=O)COc1ccc(OCc2ccc3ccccc3n2)cc1C1(c2ccccc2)CCCC1`: the IC50 in the series on Blood (Homo sapiens, Blood) turned out to be 890 nM; in series [1] (Homo sapiens, PMN) it was 1.7 nM; in series [2] it was 9.3 nM.
On to `O=C(Nc1cccnc1)Oc1ccc(OCc2ccc3ccccc3n2)cc1C1(c2ccccc2)CCCC1`, for which the IC50 in the series on Blood (Homo sapiens, Blood) is 52 nM; in series [1] (Homo sapiens, PMN), less than 1.3 nM; in series [2] it was 2.4 nM.
For `CN(C)CCOc1ccc(OCc2ccc3ccccc3n2)cc1C1(c2ccccc2)CC2CCC1C2` (centres undefined), the IC50 is 335 nM with Blood (Homo sapiens, Blood); 8.7 nM in series [1] (Homo sapiens, PMN); 6.5 nM in series [2].
Take `CCCCOc1ccc(OCc2ccc3ccccc3n2)cc1C1(c2ccccc2)CC2CCC1C2` (centres undefined): the 50% inhibitory concentration (IC50) was greater than 3000 nM in the series with Blood (Homo sapiens, Blood); 80 nM in series [1] (Homo sapiens, PMN); 6 nM in series [2].
Consider `COC(=O)COc1ccc(OCc2ccc3ccccc3n2)cc1C1(c2ccccc2)CC2CCC1C2` (centres undefined), for which the IC50 is 290 nM in the series on Blood (Homo sapiens, Blood); greater than 6000 nM in series [3]; 5 nM in series [1] (Homo sapiens, PMN); 5 nM in series [2].
As for `O=C(Nc1cccnc1)Oc1ccc(OCc2nc3ccccc3s2)cc1C1(c2ccccc2)CC2CCC1C2` (single isomer, unassigned; (-)), the concentration for half-maximal inhibition (IC50) came out at 37 nM in the series on Blood; 3 nM in series [1] (Homo sapiens, PMN); 2.4 nM in series [2].
Consider `Oc1ccc(C2(c3ccc(OCc4ccc5ccccc5n4)cc3)CC3CCC2C3)cc1` (centres undefined), for which the IC50 amounted to 186 nM in series [1] (Homo sapiens, PMN) and 145 nM in series [2].
`Oc1ccc(OCc2ccc3ccccc3n2)cc1C1(c2ccccc2)CCCC1`: the half-maximal inhibitory concentration (IC50) in the series on Blood (Homo sapiens, Blood) was 1920 nM; in series [1] (Homo sapiens, PMN) it was 5 nM; in series [2] it was 22 nM.
Regarding `O=C(O)c1ccc(OCc2ccc3ccccc3n2)cc1C1(c2ccccc2)CC2CCC1C2` (centres undefined), the IC50 came out at 9.5 nM in series [1] (Homo sapiens, PMN) and 12.4 nM in series [2].
For the molecule `COC(=O)COc1ccc(OCc2ccc3ccccc3n2)cc1C1(c2ccccc2)CCCCC1`, the IC50 in the series with Blood (Homo sapiens, Blood) turned out to be 200 nM; in series [1] (Homo sapiens, PMN), 1.8 nM; in series [2], 3.7 nM.
Take `COC(=O)COc1ccc(OCc2ccc3ccccc3n2)c(C2(c3ccccc3)CC3CCC2C3)c1` (centres undefined): the IC50 in series [1] (Homo sapiens, PMN) turned out to be 5.9 nM; in series [2], 94 nM.
`COc1ccc(OCc2ccc3ccccc3n2)cc1C1(c2ccccc2)CC2CCC1C2` (centres undefined): the concentration for half-maximal inhibition (IC50) in the series with Blood (Homo sapiens, Blood) was 1100 nM; in series [1] (Homo sapiens, PMN), 9 nM; in series [2], 8.6 nM.
For the molecule `O=C(Nc1cccnc1)Oc1ccc(OCc2ccccn2)c(C2(c3ccccc3)CC3CCC2C3)c1` (centres undefined), the IC50 was greater than 3000 nM with Blood (Homo sapiens, Blood) and 181 nM in series [2].
Take `c1ccc(C2(c3cc(OCc4ccccn4)ccc3OCc3ccccn3)CC3CCC2C3)cc1` (centres undefined): the IC50 in the series with Blood (Homo sapiens, Blood) was found to be 275 nM; in series [1] (Homo sapiens, PMN), 3.9 nM; in series [2], 18.3 nM.
For the molecule `OCCOc1ccc(C2(c3ccc(OCCO)cc3)CC3CCC2C3)cc1` (centres undefined), the IC50 is greater than 8000 nM in series [3]; 60 nM in series [1] (Homo sapiens, PMN); 387 nM in series [2].
As for `c1ccc(COc2ccc(OCc3ccc4ccccc4n3)cc2C2(c3ccccc3)CC3CCC2C3)cc1` (centres undefined), the IC50 was greater than 3000 nM in the series on Blood (Homo sapiens, Blood); 217 nM in series [1] (Homo sapiens, PMN); 8.6 nM in series [2].
As for `c1ccc(C2(c3cc(OCc4ccc5occc5n4)ccc3OCc3ccccn3)CC3CCC2C3)cc1` (centres undefined), the half-inhibitory concentration (IC50) came out at 80 nM in the series on Blood (Homo sapiens, Blood); 2.2 nM in series [1] (Homo sapiens, PMN); 4.9 nM in series [2].
Turning to `c1ccc(C2(c3cc(OCc4cccnc4)ccc3OCc3ccccn3)CC3CCC2C3)cc1` (centres undefined), the IC50 in series [1] (Homo sapiens, PMN) was found to be 24 nM; in series [2], 134 nM.
As to `O=C(O)COc1ccc(OCc2ccc3ccccc3n2)cc1C1(c2ccccc2)CC2CCC1C2` (centres undefined), the IC50 is greater than 3000 nM in the series with Blood (Homo sapiens, Blood); 16 nM in series [1] (Homo sapiens, PMN); 14 nM in series [2].
For the molecule `Oc1ccc(OCc2ccc3ccccc3n2)cc1C1(c2ccccc2)CC2CCC1C2` (centres undefined), the half-inhibitory concentration (IC50) in the series with Blood (Homo sapiens, Blood) came out at 580 nM; in series [3] it was 5000 nM; in series [1] (Homo sapiens, PMN), 19 nM; in series [2] it was 13.2 nM.
For `O=C(Nc1cccnc1)Oc1ccc(OCc2nc3ccccc3s2)cc1C1(c2ccccc2)CC2CCC1C2` (centres undefined), the IC50 in the series with Blood was 86 nM; in series [1] (pmn), 1.8 nM; in series [2] it was 2.5 nM.
Consider `c1ccc(C2(c3cc(OCc4ccc5ccccc5n4)ccc3OCc3ccc4ccccc4n3)CCCCC2)cc1`, for which the half-inhibitory concentration (IC50) was found to be 3000 nM in the series with Blood (Homo sapiens, Blood); 6.1 nM in series [1] (Homo sapiens, PMN); 4.2 nM in series [2].
Turning to `COC(=O)COc1cc(OCc2ccc3ccccc3n2)ccc1C1(c2ccccc2)CC2CCC1C2` (centres undefined), the concentration for half-maximal inhibition (IC50) was found to be 47 nM in series [1] (Homo sapiens, PMN) and 776 nM in series [2].
With `c1ccc(C2(c3cc(OCc4nc5ccccc5s4)ccc3OCc3ccccn3)CC3CCC2C3)cc1` (centres undefined), the 50% inhibitory concentration (IC50) with Blood (Homo sapiens, Blood) came to 220 nM; in series [1] (Homo sapiens, PMN) it was 7 nM; in series [2] it was 7.6 nM.
As for `O=C(O)COc1ccc(OCc2ccc3ccccc3n2)c(C2(c3ccccc3)CC3CCC2C3)c1` (centres undefined), the IC50 is 282 nM in series [1] (Homo sapiens, PMN) and 3150 nM in series [2].
In the same order, the values of `O=C(O)COc1cc(OCc2ccc3ccccc3n2)ccc1C1(c2ccccc2)CC2CCC1C2` (centres undefined) are 152 nM and 3590 nM.
Regarding `COC(=O)c1ccc(OCc2ccc3ccccc3n2)cc1C1(c2ccccc2)CC2CCC1C2` (centres undefined), the 50% inhibitory concentration (IC50) worked out at 140 nM in the series with Blood (Homo sapiens, Blood); 2.6 nM in series [1] (Homo sapiens, PMN); 5.6 nM in series [2].
For the molecule `O=C(O)COc1ccc(C2(c3ccc(OCc4ccc5ccccc5n4)cc3)CC3CCC2C3)cc1` (centres undefined), the concentration for half-maximal inhibition (IC50) in series [3] was greater than 6300 nM; in series [1] (Homo sapiens, PMN) it was 44 nM; in series [2] it was 98 nM.
Turning to `O=C(Nc1cccnc1)Oc1ccc(OCc2nc3ccccc3s2)cc1C1(c2ccccc2)CC2CCC1C2` (racemic), in the series on Canis familiaris, the inhibition in vivo at 2.5 µg/kg/min turned out to be 89%. This molecule gave a Cmax in series [4] of 1100 nM. In addition, the 50% inhibitory concentration (IC50) came to 33 nM with Blood, 2 nM in series [1] (pmn) and 2.8 nM in series [2]. In series [5], this molecule yielded a bioavailability of 19%.
As to `O=C(O)CCCOc1ccc(OCc2ccc3ccccc3n2)cc1C1(c2ccccc2)CC2CCC1C2` (centres undefined), the half-inhibitory concentration (IC50) was found to be 300 nM with Blood (Homo sapiens, Blood); 8 nM in series [1] (Homo sapiens, PMN); 3.5 nM in series [2].
With `CC(C)(C)Sc1c(CC(C)(C)C(=O)O)n(Cc2ccc(Cl)cc2)c2ccc(OCc3ccc4ccccc4n3)cc12` [QUIFLAPON], the IC50 came out at 510 nM in the series with Blood (Homo sapiens, Blood) and 3.1 nM in series [1] (Homo sapiens, PMN).
On to `c1ccc(C2(c3cc(OCc4ccc5ccccc5n4)ccc3OCc3ccccn3)CC3CCC2C3)cc1` (centres undefined), for which the IC50 with Blood (Homo sapiens, Blood) was found to be 225 nM; in series [1] (Homo sapiens, PMN), 7 nM; in series [2], 4.1 nM.
With `c1ccc2nc(COc3ccc(C4(c5ccc(OCc6ccc7ccccc7n6)cc5)CC5CCC4C5)cc3)ccc2c1` (centres undefined), the concentration for half-maximal inhibition (IC50) in series [1] (Homo sapiens, PMN) is greater than 1800 nM; in series [2], 127 nM.
Consider `CCOC(=O)CCCOc1ccc(OCc2ccc3ccccc3n2)cc1C1(c2ccccc2)CC2CCC1C2` (centres undefined), for which the half-maximal inhibitory concentration (IC50) turned out to be 150 nM with Blood (Homo sapiens, Blood); 42 nM in series [1] (Homo sapiens, PMN); 3.7 nM in series [2].

The values are drawn from ChEMBL document CHEMBL1141525, “Substituted 2,2-bisaryl-bicycloheptanes as novel and potent inhibitors of 5-lipoxygenase activating protein” (Bioorg Med Chem Lett, 2008).
